Columns and labels:
[1] = system: NSCLC cell lines (LLC, H1650, A549); assay: Annexin V apoptosis assay (flow cytometry); assay type: cell-based, mouse (LLC), human (H1650; conditions: 48 h, compared to untreated cells
Procedure: FIGS. 1A-lE depict that WFA induces ER stress-mediated apoptosis in NSCLC cell lines. (FIG. 1A) NSCLC cells were plated on 96-well plates and treated with different concentrations of WFA ([…]) in triplicates. Forty-eight hours post-treatment, cell viability was determined using Cell Titer-Glo assay. Luminescence values were normalized to control untreated cells and IC50 values are represented as the mean of two independent experiments ±SEM. (FIG. 1B) NSCLC cells were treated WFA for forty-eight hours, then collected to measure apoptotic cell death using Annexin V assay in LLC cells, H1650 cells, and A549 cells. Percentages of early (annexin*DAPI-) and late (annexin*DAPI+) apoptotic cells are represented as means of two separate experiments ±SEM and statistical significance was calculated using one-way ANOVA and a Fisher LSD post hoc test was used to compare the mean of each group to that of the control group. (FIGS. 1C-1D) WFA treated cells were collected in Trizol and total RNA was isolated to measure the levels of Bax (FIG. 1C) and Bcl2 (FIG. 1D) mRNA using qRT-PCR. PCR experiments were repeated at least twice, and one representative experiment is shown as mean±SEM of the technical replicates. […] The quantification of western blot band density was performed using Image J software v.1.54d and normalized to housekeeping control protein in LLC cells (0-actin). […]

[2] = system: apoptotic marker transcripts in NSCLC cell lines; assay: qRT-PCR of pro- and anti-apoptotic transcripts; assay type: cell-based, mouse (LLC), human (H1650, A549)
Procedure: FIGS. 1A-lE depict that WFA induces ER stress-mediated apoptosis in NSCLC cell lines. (FIG. 1A) NSCLC cells were plated on 96-well plates and treated with different concentrations of WFA ([…]) in triplicates. Forty-eight hours post-treatment, cell viability was determined using Cell Titer-Glo assay. Luminescence values were normalized to control untreated cells and IC50 values are represented as the mean of two independent experiments ±SEM. (FIG. 1B) NSCLC cells were treated WFA for forty-eight hours, then collected to measure apoptotic cell death using Annexin V assay in LLC cells, H1650 cells, and A549 cells. Percentages of early (annexin*DAPI-) and late (annexin*DAPI+) apoptotic cells are represented as means of two separate experiments ±SEM and statistical significance was calculated using one-way ANOVA and a Fisher LSD post hoc test was used to compare the mean of each group to that of the control group. (FIGS. 1C-1D) WFA treated cells were collected in Trizol and total RNA was isolated to measure the levels of Bax (FIG. 1C) and Bcl2 (FIG. 1D) mRNA using qRT-PCR. PCR experiments were repeated at least twice, and one representative experiment is shown as mean±SEM of the technical replicates. (FIG. 1E) Western blot of ER stress markers p-eIF-2 and CHOP was performed using total lysates of WFA-treated LLC cells. The quantification of western blot band density was performed using Image J software v.1.54d and normalized to housekeeping control protein in LLC cells (0-actin). […] Data were obtained from two independent experiments.
FIGS. 7A-7I depict qRT-PCR analysis of the change in expression of pro-apoptotic and anti-apoptotic induced by WFA treatment. WFA increased the mRNA levels of proapoptotic protein Bak-1 in (FIG. 7A) LLC cells and BAD in (FIG. 7C) H1650 cells. […] PCR was repeated twice, and one representative experiment is shown as mean±SEM of 3 technical replicates. […] (FIGS. 7G-7I) Western blots.
Total cellular RNA was isolated from collected cell pellets using TRIzol reagent (Invitrogen, Waltham, MA, USA) and then quantified using the 2000 Nanodrop spectrophotometer (Thermo Fisher Scientific, Waltham, MA, USA). cDNA synthesis was performed using the Verso cDNA synthesis kit (Thermo Fisher Scientific, Waltham, MA, USA). qPCR was then performed using Forget-Me-Not EvaGreen qPCR Master Mix (Biotium, Fremont, CA, USA) in a Bio-Rad CFX384 thermocycler according to the manufacturer's instructions. The CFX Maestro software version 2.3 (Bio-Rad, Hercules, CA, USA) was used to calculate the ΔCt and ΔΔCt values and gene expression was normalized to housekeeping genes glyceraldehyde 3-phosphate dehydrogenase (GAPDH) or β-actin. The sequences of PCR primers used are listed in Table 2 (Integrated DNA Technologies, Inc, Coralville, IA, USA).

[3] = system: WI-38 lung fibroblasts and PBMCs; conditions: at WFA concentrations toxic to A549 NSCLC cells; cited from earlier work
[4] = system: PD-L1 expression in MC38, HCT116 colon cancer cell lines; assay: PD-L1 expression in colon cancer cell lines; assay type: cell-based, mouse (MC38), human (HCT116)
Procedure: FIGS. 8A-8G depict that WFA induced ICD and PD-L1 upregulation in colorectal cancer cell lines. WFA increased the levels of ecto-CRT in the murine colorectal cancer cell line (FIG. 8A) MC-38 and human cell line (FIG. 8B) HCT-116. WFA increased the expression of PD-L1 in both (FIG. 8C) MC-38 and (FIG. 8D) HCT-116 cells. […] H1650 cells (at a higher density) were treated with a higher concentration of WFA (2 and 4 μM) to facilitate cell collection and protein isolation. The band density was quantified using Image J software and normalized to the housekeeping protein. The fold change from untreated control was averaged from two independent experiments ±SEM and one-way ANOVA was used to calculate the statistical significance. A Fisher LSD post hoc test was performed to compare the treatments to the control in (FIG. 8E) LLC, (FIG. 8F) H1650, (FIG. 8G) A549 cells. * p<0.05, ** p<0.01, *** p<0.001, **** p<0.0001.
In vitro WFA-treated or control cells were collected using Accutase cell detachment solution and stained with FACS-diluted (PBS, 10% FBS, 2 mMEDTA) pre-titrated fluorophore conjugated or primary unconjugated antibody solutions (Table 1) for 30 min on ice in the dark. […]

## CC1=C(CO)C(=O)O[C@@H]([C@@H](C)[C@H]2CC[C@H]3[C@@H]4C[C@H]5O[C@]56[C@@H](O)C=CC(=O)[C@]6(C)[C@H]4CC[C@]23C)C1 [WFA, Withaferin A]
[1]
  early and late apoptotic cell populations: significant increase
[2]
  Bax transcripts: increased
  Bcl-2 transcripts: reduced
[2]; H1650 cells
  BAD transcripts: increased
[2]; LLC and A549
  Survivin transcripts: reduced
  Xiap transcripts: reduced
[2]; LLC cells
  Bak-1 transcripts: increased
[3]
  viability of normal cells: remain viable
[4]
  PD-L1 expression: increased
